Active and inactive are the calls of the source. No cut-off for these calls is given here.
Key:
[1] = target: T1, MAP kinase-activated protein kinase 2 (Homo sapiens, UniProt P49137); assay: Inhibition of MK2 pretreated for 30 mins before fluorescein labeled substrate peptide addition measured after 2 hrs by IMAP assay
THP-1 [2] = assay: Antiinflammatory activity in human THP1 cells assessed as inhibition of LPS-induced TNFalpha production pretreated 30 mins before LPS challenge measured after 4 hrs; type: functional, cell-based
[3] = target: T1, MAP kinase-activated protein kinase 2; assay: Inhibition of MK2 in LPS-stimulated human THP1 cells assessed as inhibition of Hsp27 phosphorylation pretreated 60 mins before LPS challenge measured after 10 mins; type: cell-based, THP-1
[4] = Dissociation constant, pKa of the compound at pH 7.4; type: physicochemical
[5] = Half life in human liver microsomes; type: ADME, Microsome
[6] = Half life in rat liver microsomes; type: ADME, Microsome
[7] = AUC in po dosed rat; type: ADME, organism-based; conditions: plasma
THP-1 [8] = assay: Cytotoxicity against human THP1 cells by Alamar blue assay; type: cell-based
[9] = Inhibition of p38
[10] = target: Serine/threonine-protein kinase pim-1 (Homo sapiens) (UniProt P11309); assay: Inhibition of PIM1 at 1 uM
[11] = target: Serine/threonine-protein kinase pim-3 (Homo sapiens) (UniProt Q86V86); assay: Inhibition of PIM3 at 1 uM
[12] = target: Serine/threonine-protein kinase Chk2 (Homo sapiens) (UniProt O96017); assay: Inhibition of CHK2 at 1 uM
[13] = target: T2, Serine/threonine-protein kinase 17A (Homo sapiens) (UniProt Q9UEE5); assay: Inhibition of DRAK1 at 1 uM
T2 sequence (whole entry): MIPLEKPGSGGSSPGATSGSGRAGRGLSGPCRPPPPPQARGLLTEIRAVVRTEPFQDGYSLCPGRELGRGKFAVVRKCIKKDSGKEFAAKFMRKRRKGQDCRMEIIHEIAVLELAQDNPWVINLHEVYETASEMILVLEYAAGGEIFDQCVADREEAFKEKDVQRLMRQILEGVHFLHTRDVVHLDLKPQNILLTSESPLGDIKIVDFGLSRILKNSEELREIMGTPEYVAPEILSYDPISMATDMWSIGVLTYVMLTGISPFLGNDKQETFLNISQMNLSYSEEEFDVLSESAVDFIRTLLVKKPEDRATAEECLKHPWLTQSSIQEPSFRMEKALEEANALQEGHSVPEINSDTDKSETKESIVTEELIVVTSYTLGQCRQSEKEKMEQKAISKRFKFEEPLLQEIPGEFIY

[14] = target: Mitogen-activated protein kinase 3 (Homo sapiens) (UniProt P27361); assay: Inhibition of ERK1 at 1 uM
in vitro = conditions: human, Caco-2
Description: Permeability across human Caco2 cells

[15] = target: Mitogen-activated protein kinase 1 (Homo sapiens) (UniProt P28482); assay: Inhibition of ERK2 at 1 uM
[16] = Oral bioavailability in mouse; type: ADME, organism-based; conditions: in vivo
PBMC = assay: Antiinflammatory activity in human PBMC cells assessed as inhibition of LPS-induced TNFalpha production pretreated 30 mins before LPS challenge measured after 4 hrs by ELISA; type: functional, cell-based
[17] = target: MAP kinase-activated protein kinase 3 (Homo sapiens) (UniProt Q16644); assay: Inhibition of MK3 at 1 uM
[18] = target: T3, MAP kinase-activated protein kinase 5 (Homo sapiens) (UniProt Q8IW41); assay: Inhibition of MK5 at 1 uM
T3 sequence (whole entry): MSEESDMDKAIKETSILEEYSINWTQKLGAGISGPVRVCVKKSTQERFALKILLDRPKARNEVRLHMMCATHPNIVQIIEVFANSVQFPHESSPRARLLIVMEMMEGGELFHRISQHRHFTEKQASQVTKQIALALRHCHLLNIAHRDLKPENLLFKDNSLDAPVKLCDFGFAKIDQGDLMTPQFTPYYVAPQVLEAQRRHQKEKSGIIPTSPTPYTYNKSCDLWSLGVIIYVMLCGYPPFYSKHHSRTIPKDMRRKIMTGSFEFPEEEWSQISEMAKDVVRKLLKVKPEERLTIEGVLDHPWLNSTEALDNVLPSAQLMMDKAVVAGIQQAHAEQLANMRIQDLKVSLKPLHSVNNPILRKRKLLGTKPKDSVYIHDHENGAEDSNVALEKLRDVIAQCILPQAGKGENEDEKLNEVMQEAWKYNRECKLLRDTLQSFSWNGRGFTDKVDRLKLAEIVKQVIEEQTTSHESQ

Chain of Mitogen-activated protein kinase 1 (Homo sapiens) (P28482 whole entry, looked up): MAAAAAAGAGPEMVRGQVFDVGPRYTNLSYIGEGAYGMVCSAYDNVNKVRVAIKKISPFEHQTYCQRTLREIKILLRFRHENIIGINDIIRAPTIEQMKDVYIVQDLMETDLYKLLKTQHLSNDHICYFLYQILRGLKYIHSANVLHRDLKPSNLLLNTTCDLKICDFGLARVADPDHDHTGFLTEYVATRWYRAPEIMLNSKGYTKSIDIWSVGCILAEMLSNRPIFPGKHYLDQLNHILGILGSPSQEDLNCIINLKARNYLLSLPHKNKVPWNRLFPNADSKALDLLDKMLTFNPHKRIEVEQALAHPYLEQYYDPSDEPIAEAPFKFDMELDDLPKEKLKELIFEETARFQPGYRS
Chain of Serine/threonine-protein kinase Chk2 (Homo sapiens) (O96017 whole entry): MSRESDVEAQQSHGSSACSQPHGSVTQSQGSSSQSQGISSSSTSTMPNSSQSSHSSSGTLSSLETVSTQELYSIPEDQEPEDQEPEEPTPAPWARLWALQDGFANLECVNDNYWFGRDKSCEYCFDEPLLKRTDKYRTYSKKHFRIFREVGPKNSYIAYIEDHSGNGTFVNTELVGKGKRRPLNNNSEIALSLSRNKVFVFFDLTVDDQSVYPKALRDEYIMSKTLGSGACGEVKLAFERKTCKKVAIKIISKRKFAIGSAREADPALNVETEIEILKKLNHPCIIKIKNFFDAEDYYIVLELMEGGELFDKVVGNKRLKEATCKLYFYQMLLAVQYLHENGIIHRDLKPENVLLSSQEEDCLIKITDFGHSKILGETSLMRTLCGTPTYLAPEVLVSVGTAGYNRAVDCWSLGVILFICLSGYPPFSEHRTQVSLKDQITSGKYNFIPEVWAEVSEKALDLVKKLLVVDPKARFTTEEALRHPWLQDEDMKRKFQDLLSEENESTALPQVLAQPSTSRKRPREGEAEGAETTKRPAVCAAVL
Chain of Mitogen-activated protein kinase 3 (Homo sapiens) (P27361 whole entry): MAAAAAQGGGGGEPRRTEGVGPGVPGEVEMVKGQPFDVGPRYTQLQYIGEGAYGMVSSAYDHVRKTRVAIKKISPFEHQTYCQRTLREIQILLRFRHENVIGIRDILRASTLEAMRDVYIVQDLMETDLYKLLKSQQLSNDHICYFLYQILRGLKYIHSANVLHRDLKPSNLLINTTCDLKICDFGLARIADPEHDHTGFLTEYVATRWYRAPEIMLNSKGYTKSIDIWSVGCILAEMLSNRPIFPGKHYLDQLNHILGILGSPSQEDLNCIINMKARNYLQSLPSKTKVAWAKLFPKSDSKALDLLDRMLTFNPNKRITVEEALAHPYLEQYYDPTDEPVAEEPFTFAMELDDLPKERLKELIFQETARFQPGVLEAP
Chain of Serine/threonine-protein kinase pim-1 (Homo sapiens) (P11309 whole entry, looked up): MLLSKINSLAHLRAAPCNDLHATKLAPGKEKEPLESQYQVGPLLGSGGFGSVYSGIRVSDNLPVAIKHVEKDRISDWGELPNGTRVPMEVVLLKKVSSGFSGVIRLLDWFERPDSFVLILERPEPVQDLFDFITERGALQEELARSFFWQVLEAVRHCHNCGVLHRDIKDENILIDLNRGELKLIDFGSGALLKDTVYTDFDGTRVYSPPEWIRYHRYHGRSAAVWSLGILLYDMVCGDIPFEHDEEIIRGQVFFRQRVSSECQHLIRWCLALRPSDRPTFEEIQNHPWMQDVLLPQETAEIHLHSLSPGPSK
T1 sequence (P49137 whole entry): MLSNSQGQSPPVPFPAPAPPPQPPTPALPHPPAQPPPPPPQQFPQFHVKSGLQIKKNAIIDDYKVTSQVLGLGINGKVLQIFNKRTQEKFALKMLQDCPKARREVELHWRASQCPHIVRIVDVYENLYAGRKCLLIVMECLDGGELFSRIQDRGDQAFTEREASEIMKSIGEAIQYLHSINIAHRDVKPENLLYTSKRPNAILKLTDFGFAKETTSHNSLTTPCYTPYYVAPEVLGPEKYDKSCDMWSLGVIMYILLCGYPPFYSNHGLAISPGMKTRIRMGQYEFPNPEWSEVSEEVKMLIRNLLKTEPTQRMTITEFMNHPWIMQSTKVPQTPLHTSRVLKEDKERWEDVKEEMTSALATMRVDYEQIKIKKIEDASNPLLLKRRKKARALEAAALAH
Chain of MAP kinase-activated protein kinase 3 (Homo sapiens) (Q16644 whole entry, looked up): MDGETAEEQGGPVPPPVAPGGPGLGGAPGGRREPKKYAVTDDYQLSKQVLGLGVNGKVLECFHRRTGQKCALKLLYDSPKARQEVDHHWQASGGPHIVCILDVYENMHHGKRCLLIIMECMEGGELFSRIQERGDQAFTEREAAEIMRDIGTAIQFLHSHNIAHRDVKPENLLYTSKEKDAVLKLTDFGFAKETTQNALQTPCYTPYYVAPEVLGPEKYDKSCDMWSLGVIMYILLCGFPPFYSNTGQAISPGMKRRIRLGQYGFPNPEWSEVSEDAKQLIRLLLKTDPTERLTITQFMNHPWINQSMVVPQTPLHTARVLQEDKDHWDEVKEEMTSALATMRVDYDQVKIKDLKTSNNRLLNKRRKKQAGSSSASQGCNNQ

Compound `CN1CCC2(CC1)CNC(=O)c1cc(-c3ccnc(-c4cc5ccccc5o4)n3)[nH]c12` has an EC50 [1] of 13 nM, an EC50 (THP-1 [2]) of 470 nM and an EC50 [3] of 1600 nM. The pKa [4] was 8.1, the half-life [5] was > 1 h and the half-life [6] was > 1 h. For the same compound, the AUC [7] was 0.078 µM·h, the Activity (THP-1 [8]) was > 10 µM and the inhibition [9] was “inactive”. The inhibition [10] was > 80%, the inhibition [11] was > 80% and the inhibition [12] was > 80%. For the same compound, the inhibition [13] was > 80%, the inhibition [14] was > 80% and the Papp (in vitro) was 1 ×10⁻⁶ cm/s. For the same compound, the inhibition [15] was > 80%.

In the case of `O=C1NCC2(CCNCC2)c2[nH]c(-c3ccnc(-c4cc5ccccc5o4)n3)cc21`, the EC50 [1] is reported as 5.9 nM, the EC50 (THP-1 [2]) is reported as 280 nM and the EC50 [3] is reported as 1200 nM. For the same compound, the pKa [4] was 9.1, the half-life [5] was > 1 h and the half-life [6] was > 1 h. The AUC [7] was < 0.006 µM·h, the Activity (THP-1 [8]) was > 10 µM and the inhibition [9] was “inactive”. For the same compound, the inhibition [10] was > 80%, the inhibition [11] was > 80% and the inhibition [12] was > 80%. The inhibition [13] was > 80%, the inhibition [14] was > 80% and the inhibition [15] was > 80%.

In the case of `O=C1NCC2(CCCNC2)c2[nH]c(-c3ccnc(-c4cc5ccccc5o4)n3)cc21` (racemic), the EC50 [1] is reported as 11 nM, the pKa [4] is reported as 8.4 and the half-life [5] is reported as > 1 h. For the same compound, the half-life [6] was > 1 h, the AUC [7] was 0.472 µM·h and the Activity (THP-1 [8]) was “Non-toxic”. For the same compound, the inhibition [9] was “inactive”, the inhibition [10] was > 80% and the inhibition [11] was > 80%. For the same compound, the inhibition [12] was > 80%, the inhibition [13] was > 80% and the inhibition [14] was > 80%. The Papp (in vitro) was 1.5 ×10⁻⁶ cm/s and the inhibition [15] was > 80%.

Work on `O=C1NCC2(CCNCC2)c2[nH]c(-c3ccnc(-c4ccc5c(c4)OCO5)n3)cc21` yielded an EC50 [1] of 4.3 nM, an EC50 (THP-1 [2]) of 910 nM and an EC50 [3] of 620 nM. For the same compound, the pKa [4] was 9.3, the half-life [5] was > 1 h and the half-life [6] was > 1 h. For the same compound, the AUC [7] was < 0.006 µM·h, the bioavailability [16] was 0.7% and the inhibition [9] was “inactive”. For the same compound, the inhibition [10] was > 80%, the inhibition [11] was > 80% and the inhibition [12] was > 80%. For the same compound, the inhibition [13] was > 80%, the inhibition [14] was > 80% and the Papp (in vitro) was 0.1 ×10⁻⁶ cm/s. For the same compound, the inhibition [15] was > 80%.

In the case of `O=C1NCC2(CCCNC2)c2[nH]c(-c3ccnc(-c4ccc5c(c4)OCO5)n3)cc21` (racemic), the EC50 [1] is reported as 28 nM, the EC50 (THP-1 [2]) is reported as 1400 nM and the EC50 [3] is reported as 930 nM. The EC50 (PBMC) was 1100 nM, the pKa [4] was 8.3 and the half-life [5] was > 1 h. The half-life [6] was 0.808 h, the AUC [7] was 3.21 µM·h and the bioavailability [16] was 48%. For the same compound, the inhibition [9] was “inactive”, the inhibition [17] was > 95% and the inhibition [18] was > 95%. For the same compound, the inhibition [10] was > 80%, the inhibition [11] was > 80% and the inhibition [12] was > 80%. For the same compound, the inhibition [13] was > 80%, the inhibition [14] was > 80% and the Papp (in vitro) was 3.4 ×10⁻⁶ cm/s. For the same compound, the inhibition [15] was > 80%.

In the case of `O=C1NCC2(CCCNC2)c2[nH]c(-c3ccnc(-c4cccnc4)n3)cc21` (racemic), the EC50 [1] is reported as 18 nM, the EC50 (THP-1 [2]) is reported as 3000 nM and the EC50 [3] is reported as 2100 nM. For the same compound, the EC50 (PBMC) was 3300 nM, the inhibition [9] was “inactive” and the inhibition [10] was > 80%. The inhibition [11] was > 80%, the inhibition [12] was > 80% and the inhibition [13] was > 80%. For the same compound, the inhibition [14] was > 80% and the inhibition [15] was > 80%.

`COc1cncc(-c2nccc(-c3cc4c([nH]3)C3(CCCNC3)CNC4=O)n2)c1` (racemic) gave an EC50 [1] of 24 nM, an EC50 (THP-1 [2]) of 1400 nM and an EC50 [3] of 900 nM. For the same compound, the EC50 (PBMC) was 1000 nM, the pKa [4] was 8.4 and the half-life [5] was 0.945 h. For the same compound, the half-life [6] was 0.702 h, the inhibition [9] was “inactive” and the inhibition [17] was > 95%. For the same compound, the inhibition [18] was > 95%, the inhibition [10] was > 80% and the inhibition [11] was > 80%. For the same compound, the inhibition [12] was > 80%, the inhibition [13] was > 80% and the inhibition [14] was > 80%. The inhibition [15] was > 80%.

Compound `O=C1NC[C@]2(CCCNC2)c2[nH]c(-c3ccnc(-c4ccc5c(c4)OCO5)n3)cc21` has an EC50 [1] of 91 nM, an EC50 (THP-1 [2]) of 8300 nM and an EC50 [3] of 7700 nM. The EC50 (PBMC) was 3000 nM, the inhibition [9] was “inactive” and the inhibition [10] was > 80%. For the same compound, the inhibition [11] was > 80%, the inhibition [12] was > 80% and the inhibition [13] was > 80%. The inhibition [14] was > 80% and the inhibition [15] was > 80%.

With `COCCCOc1ccc(-c2nccc(-c3cc4c([nH]3)C3(CCCNC3)CNC4=O)n2)cn1` (racemic) the EC50 [1] was 21 nM, the EC50 (THP-1 [2]) was 1500 nM and the EC50 [3] was 1400 nM. For the same compound, the EC50 (PBMC) was 920 nM, the pKa [4] was 8.2 and the half-life [5] was > 1 h. For the same compound, the half-life [6] was > 1 h, the AUC [7] was 0.882 µM·h and the inhibition [9] was “inactive”. The inhibition [10] was > 80%, the inhibition [11] was > 80% and the inhibition [12] was > 80%. The inhibition [13] was > 80%, the inhibition [14] was > 80% and the Papp (in vitro) was 4.2 ×10⁻⁶ cm/s. For the same compound, the inhibition [15] was > 80%.

For `COc1cncc(-c2nccc(-c3cc4c([nH]3)[C@@]3(CCCNC3)CNC4=O)n2)c1`, the EC50 [1] was 126 nM, the EC50 (THP-1 [2]) was 2200 nM and the EC50 [3] was 2300 nM. For the same compound, the EC50 (PBMC) was > 10000 nM, the inhibition [9] was “inactive” and the inhibition [10] was > 80%. For the same compound, the inhibition [11] was > 80%, the inhibition [12] was > 80% and the inhibition [13] was > 80%. For the same compound, the inhibition [14] was > 80% and the inhibition [15] was > 80%.

For `CCN1CCC2(CC1)CNC(=O)c1cc(-c3ccnc(-c4cc5ccccc5o4)n3)[nH]c12`, the EC50 [1] was 59 nM, the EC50 (THP-1 [2]) was 1600 nM and the EC50 [3] was > 10000 nM. The pKa [4] was 8.6, the half-life [5] was > 1 h and the half-life [6] was > 0.993 h. The AUC [7] was 0.154 µM·h, the Activity (THP-1 [8]) was > 10 µM and the inhibition [9] was “inactive”. For the same compound, the inhibition [10] was > 80%, the inhibition [11] was > 80% and the inhibition [12] was > 80%. For the same compound, the inhibition [13] was > 80%, the inhibition [14] was > 80% and the Papp (in vitro) was 0.8 ×10⁻⁶ cm/s. For the same compound, the inhibition [15] was > 80%.
